We go through 7 molecules from PubChem BioAssay (NCI).

Molecules are shown by their SMILES.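 How tested: cells in 96-well plates exposed to compound for 48 hours at five concentrations. GI50: concentration for 50% inhibition of growth. TGI denotes the concentration required for complete inhibition of growth.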 A value given as a limit tells only on which side of the number the result lay.

Some test systems named below: HCC-2998 colon; HCT-15 colon; HL-60(TB) leukemia; IGROV1 ovarian; MOLT-4 leukemia; OVCAR-5 ovarian; UACC-257 melanoma; UO-31 renal; NCI-H23 lung; SK-OV-3 ovarian.
Holding throughout (assay): inhibition of tumour cell growth, NCI panel, 48 h

Turning to `CC(C)=CCC/C(C)=C/C=C/C(C)=C/C1C[C@@]2(C(O)O1)[C@H](CCCO)/C(=C(/C)C=O)CC[C@]2(C)O` (some centres not stated), the TGI with HCC-2998 colon turned out to be 29.4 µM; with HCT-15 colon it was 31 µM; in the test on HL-60(TB) leukemia it was 29 µM; in the test on IGROV1 ovarian it was 40.6 µM; with MOLT-4 leukemia it was 30.8 µM; in the test with OVCAR-5 ovarian, 55.6 µM. Besides, the TGI stood at 56.5 µM with UACC-257 melanoma and 33.9 µM in the test with UO-31 renal.
As to `CCOC(=O)c1csc(NC(=O)C(C)N2CCOCC2)n1` (configuration not stated), the TGI with HCC-2998 colon, in the test on HCT-15 colon, in the test on HL-60(TB) leukemia, in the test on IGROV1 ovarian, in the test on MOLT-4 leukemia and in the test on NCI-H23 lung was above 100 µM in each case. Further, the TGI with OVCAR-5 ovarian, in the test on SK-OV-3 ovarian, in the test with UACC-257 melanoma and with UO-31 renal was above 100 µM each time.
In the case of `C/C(=N\NC(=S)N1CCOCC1)c1nc2ncccc2[nH]1`, the TGI in the test with HCC-2998 colon, in the test with HCT-15 colon, in the test with HL-60(TB) leukemia, in the test on IGROV1 ovarian, with MOLT-4 leukemia and in the test with NCI-H23 lung was above 100 µM each time. In addition, the TGI was above 100 µM with OVCAR-5 ovarian, above 100 µM in the test on SK-OV-3 ovarian, 77.4 µM in the test on UACC-257 melanoma and 96.2 µM with UO-31 renal.
As to `Cc1cc(Nc2ccc(Cl)cc2)nc(NCCCNc2ccnc3cc(Cl)ccc23)n1`, the GI50 in the test with OVCAR-5 ovarian is 1.66 µM; in the test on SK-OV-3 ovarian it was 1.65 µM; in the test with UACC-257 melanoma, 1.8 µM; with UO-31 renal it was 1.49 µM. Moreover, the TGI was found to be 3.09 µM in the test with OVCAR-5 ovarian, 3.01 µM in the test on SK-OV-3 ovarian, 3.39 µM in the test on UACC-257 melanoma and 2.96 µM with UO-31 renal.
Regarding `COC(=O)C(NC(=O)c1ccccc1)C(c1c(O)cc(O)cc1O)P(=O)(OC)OC` (configuration not stated), the TGI in the test on HCC-2998 colon, with HCT-15 colon, with HL-60(TB) leukemia, with IGROV1 ovarian, with MOLT-4 leukemia and in the test on NCI-H23 lung was above 100 µM throughout. For the same molecule, the TGI in the test with OVCAR-5 ovarian, in the test with SK-OV-3 ovarian, in the test on UACC-257 melanoma and in the test with UO-31 renal was above 100 µM throughout.
As for `NC(Cc1ccccc1CP(=O)(O)O)C(=O)O` (configuration not stated), the TGI in the test on HCC-2998 colon, with HCT-15 colon, in the test with HL-60(TB) leukemia, in the test on IGROV1 ovarian, with MOLT-4 leukemia and in the test with NCI-H23 lung was above 100 µM in each case. The TGI with OVCAR-5 ovarian, in the test on SK-OV-3 ovarian, in the test with UACC-257 melanoma and in the test on UO-31 renal was above 100 µM each time.
In the case of `CCN(CC)CCNc1ccc([N+](=O)[O-])c2sc3cc(Cl)ccc3c(=O)c12`, the GI50 in the test on HCC-2998 colon was 11.1 µM; in the test on HCT-15 colon, 2.7 µM; with HL-60(TB) leukemia, 11.5 µM; in the test with IGROV1 ovarian, 2.05 µM; in the test on MOLT-4 leukemia it was 2.34 µM; with NCI-H23 lung, 13.9 µM. Besides, the GI50 is 3.33 µM in the test on SK-OV-3 ovarian and 2.08 µM with UACC-257 melanoma. Also, the TGI in the test with HCC-2998 colon was above 100 µM; in the test on HCT-15 colon it was above 100 µM; in the test with HL-60(TB) leukemia, above 100 µM; with IGROV1 ovarian, 5.23 µM; in the test on MOLT-4 leukemia, above 100 µM; in the test on NCI-H23 lung, above 100 µM. The values for the TGI with SK-OV-3 ovarian and with UACC-257 melanoma were 96.5 µM and 4.96 µM, respectively.
